Test system: Jurkat T-leukemia cells
Experiment: Annexin V-PI double staining, FACS
Type: cell-based, human
Conditions: 10 µM and 30 µM, 24 h, comparison between compounds
Experimental: To confirm the pro-apoptotic activity of the studied inhibitors, Annexin V-PI double staining was addressed (Figure 7 down).
For cell death analyses, cells were stained with FITC-conjugated annexin V and propidium iodide (PI) using an apoptosis detection kit (BD Biosciences, San Jose, CA), according to the manufacturer’s instructions. In particular, 24 h after the addition of various concentration of CK2-HDAC inhibitors, Jurkat T-leukemia cells were centrifuged at 2,000 rpm, washed twice with 1x PBS, and incubated for 15 minutes in Annexin V binding buffer (BD Pharmingen, USA) containing 1/50 volume of FITC-conjugated Annexin V solution and PI (50 µg/mL). Then samples were diluted two times by appropriate volume of Annexin V binding buffer (BD Pharmingen, USA) and immediately measured on FL1/FL2 (FITC-PI) channels of FACScan flow cytometer (Becton Dickinson, USA). Analysis of the obtained results was carried out using the Cytomation Summit Software v3.1 (Cytomation Inc., USA).

CN(C)c1nc2c(Br)c(Br)c(Br)c(Br)c2n1CCc1cn(CCC(=O)NO)nn1 [Compound 7c, N-Hydroxy-3-(4-(2-(4,5,6,7-tetrabromo-2-(dimethylamino)-1H-benzo[d]imidazol-1-yl)ethyl)-1H-1,2,3-triazol-1-yl)propanamide] was tested. Which “number of annexin V-positive (apoptotic) cells” value did it give?
Its value is “significant decrease”.
